Laboratory results: US20210395254A1, “NEW TETRAHYDROPYRIMIDODIAZEPIN AND TETRAHYDROPYRIDODIAZEPIN COMPOUNDS FOR TREATING PAIN AND PAIN RELATED CONDITIONS” (ESTEVE PHARMACEUTICALS, S.A., priority 2018, published 2021)

Key:
[1] = target: human α2δ-1 subunit of Cav2.2 calcium channel (Homo sapiens, UniProt P54289); assay: Binding assay to human α2δ-1 subunit of Cav2.2 calcium channel ([3H]-Gabapentin); conditions: [3H]-Gabapentin 15 nM, human α2δ-1 enriched membranes
Experimental: Binding assay to human α2δ-1 subunit of Cav2.2 calcium channel. Human a26-1 enriched membranes (2.5 μg) were incubated with 15 nM of radiolabeled [3H]-Gabapentin in assay buffer containing Hepes-KOH 10 mM, pH 7.4. NSB (non specific binding) was measured by adding 10 μM pregabalin. The binding of the test compound was measured at either one concentration (% inhibition at 1 or 10 μM) or five different concentrations to determine affinity values (Ki). After 60 min incubation at 27° C., binding reaction was terminated by filtering through Multiscreen GF/C (Millipore) presoaked in 0.5% polyethyleneimine in Vacuum Manifold Station, followed by 3 washes with ice-cold filtration buffer containing 50 mM Tris-HCl, pH 7.4. Filter plates were dried at 60° C. for 1 hour and 30 μl of scintillation cocktail were added to each well before radioactivity reading. Readings were performed in a Trilux 1450 Microbeta radioactive counter (Perkin Elmer).

[2] = target: human norepinephrine transporter (NET) (Homo sapiens, UniProt P23975); assay: Binding assay to human norepinephrine transporter (NET) ([3H]-Nisoxetin); conditions: [3H]-Nisoxetin 5 nM, human NET enriched membranes
Chain of human norepinephrine transporter (NET) (P23975 whole entry): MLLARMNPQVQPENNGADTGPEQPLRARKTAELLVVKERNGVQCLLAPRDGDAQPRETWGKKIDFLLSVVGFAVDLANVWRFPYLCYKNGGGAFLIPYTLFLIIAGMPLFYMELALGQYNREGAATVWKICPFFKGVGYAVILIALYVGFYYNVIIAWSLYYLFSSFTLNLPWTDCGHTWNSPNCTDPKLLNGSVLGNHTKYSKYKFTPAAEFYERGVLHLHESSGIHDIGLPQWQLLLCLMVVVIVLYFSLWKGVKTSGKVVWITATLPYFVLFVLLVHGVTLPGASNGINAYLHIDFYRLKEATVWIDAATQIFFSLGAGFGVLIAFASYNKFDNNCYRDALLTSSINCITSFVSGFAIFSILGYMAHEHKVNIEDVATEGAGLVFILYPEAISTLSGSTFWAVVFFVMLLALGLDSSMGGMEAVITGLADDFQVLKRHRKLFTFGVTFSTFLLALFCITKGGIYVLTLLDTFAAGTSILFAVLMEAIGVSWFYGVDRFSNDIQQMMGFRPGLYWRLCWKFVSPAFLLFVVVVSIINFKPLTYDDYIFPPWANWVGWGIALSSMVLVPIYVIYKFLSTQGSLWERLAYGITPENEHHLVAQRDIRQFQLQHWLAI
Experimental: Binding assay to human norepinephrine transporter (NET).
Human norepinephrine transporter (NET) enriched membranes ([…]) were incubated with 5 nM of radiolabeled [3H]-Nisoxetin in assay buffer containing 50mM Tris-HCl, 120mM NaCl, 5mM KCI, pH 7.4. NSB (non specific binding) was measured by adding […] of desipramine. The binding of the test compound was measured at either one concentration (% inhibition at 1 or 10 μM) or five different concentrations to determine affinity values (Ki). After 60 min incubation at 4° C., binding reaction was terminated by filtering through Multiscreen GF/C (Millipore) presoaked in 0.5% polyethyleneimine in Vacuum Manifold Station, followed by 3 washes with ice-cold filtration buffer containing 50mM Tris-HCl, 0.9% NaCl, pH 7.4. Filter plates were dried at 60° C. for 1 hour and 30 µl of scintillation cocktail were added to each well before radioactivity reading. Readings were performed in a Trilux 1450 Microbeta radioactive counter (Perkin Elmer).

Chain of human α2δ-1 subunit of Cav2.2 calcium channel (P54289 25-1103): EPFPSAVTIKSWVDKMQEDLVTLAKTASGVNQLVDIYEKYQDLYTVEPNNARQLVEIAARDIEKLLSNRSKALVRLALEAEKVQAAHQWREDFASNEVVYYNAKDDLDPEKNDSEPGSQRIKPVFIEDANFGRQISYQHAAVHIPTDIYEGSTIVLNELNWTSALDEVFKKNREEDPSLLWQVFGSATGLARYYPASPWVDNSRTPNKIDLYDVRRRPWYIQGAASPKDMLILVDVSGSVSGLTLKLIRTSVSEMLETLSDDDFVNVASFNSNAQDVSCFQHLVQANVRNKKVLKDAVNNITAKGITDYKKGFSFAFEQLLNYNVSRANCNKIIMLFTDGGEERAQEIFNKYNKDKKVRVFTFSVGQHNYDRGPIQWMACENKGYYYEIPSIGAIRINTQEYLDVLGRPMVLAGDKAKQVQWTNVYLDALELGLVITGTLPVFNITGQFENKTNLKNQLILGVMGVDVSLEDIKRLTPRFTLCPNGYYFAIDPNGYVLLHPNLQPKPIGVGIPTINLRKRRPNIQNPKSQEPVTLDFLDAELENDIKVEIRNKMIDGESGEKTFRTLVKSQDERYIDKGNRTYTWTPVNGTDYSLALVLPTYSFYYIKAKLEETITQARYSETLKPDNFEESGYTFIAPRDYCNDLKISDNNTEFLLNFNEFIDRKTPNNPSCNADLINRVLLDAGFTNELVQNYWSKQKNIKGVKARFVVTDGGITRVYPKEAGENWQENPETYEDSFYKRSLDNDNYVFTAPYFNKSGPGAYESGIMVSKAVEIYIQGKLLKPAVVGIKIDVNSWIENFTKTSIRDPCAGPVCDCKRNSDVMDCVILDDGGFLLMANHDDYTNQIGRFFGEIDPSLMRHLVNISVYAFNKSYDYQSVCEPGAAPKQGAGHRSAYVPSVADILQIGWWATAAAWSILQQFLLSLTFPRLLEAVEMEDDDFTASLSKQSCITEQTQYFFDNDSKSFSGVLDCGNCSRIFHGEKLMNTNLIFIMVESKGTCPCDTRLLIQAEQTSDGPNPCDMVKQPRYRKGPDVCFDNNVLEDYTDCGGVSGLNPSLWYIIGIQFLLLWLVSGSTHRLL

Compound CNCC[C@H](Oc1ccc(CN2CCN(C)c3ccncc3C2=O)c(C)c1)c1ccccc1 [Example 1, (S)-1-Methyl-4-(2-methyl-4-(3-(methylamino)-1-phenylpropoxy)benzyl) -1,2,3,4-tetrahydro-5H-pyrido[4,3-e][1,4]cliazepin-5-one] has a Ki [1] of 100 to 500 nM and a Ki [2] of 100 to 500 nM.

For CNCC[C@H](Oc1ccc(CN2CCN(C)c3nc(OC)ncc3C2=O)c(C)c1)c1ccccc1 [Example 2, (S)-2-Methoxy-9-methyl-6-(2-methyl-4-(3-(methylamino)-1-phenylpropoxy)benzyl)-6,7,8,9-tetrahydro-5H-pyrimido[4,5-e][1,4]diazepin-5-one], the Ki [1] was less than 100 nM and the Ki [2] was less than 100 nM.

CNCC[C@H](Oc1ccc(CN2CCN(C)c3ncncc3C2=O)c(C)c1)c1ccccc1 [Example 3, (S)-9-Methyl-6-(2-methyl-4-(3-(methylamino)-1-phenylpropoxy)benzyl)-6,7,8,9-tetrahydro-5H-pyrimido[4,5-e][1,4]diazepin-5-one] showed a Ki [1] of less than 100 nM and a Ki [2] of less than 100 nM.

Compound CNCC[C@H](Oc1ccc(CN2CCN(C)c3nc(N)ncc3C2=O)c(Cl)c1)c1ccccc1 [Example 4, (S)-2-Amino-6-(2-chloro-4-(3-(methylamino)-1-phenylpropoxy)benzyl)-9-methyl-6,7,8,9-tetrahydro-5H-pyrimido[4,5-e][1,4]diazepin-5-one] has a Ki [1] of less than 100 nM and a Ki [2] of less than 100 nM.

CCNc1ncc2c(n1)N(C)CCN(Cc1ccc(O[C@@H](CCNC)c3ccccc3)cc1Cl)C2=O [Example 5, (S)-6-(2-Chloro-4-(3-(methylamino)-1-phenylpropoxy)benzyl)-2-(ethylamino)-9-methyl-6,7,8,9-tetrahydro-5H-pyrimido[4,5-e][1,4]diazepin-5-one] was tested, and the Ki [1] was less than 100 nM and the Ki [2] was 100 to 500 nM.

Work on CCNc1ncc2c(n1)N(C)CCN(Cc1ncc(O[C@@H](CCNC)c3cccc(F)c3)cc1F)C2=O [Example 6, (S)-2-(Ethylamino)-6-((3-fluoro-5-(1-(3-fluorophenyl)-3-(methylamino)propoxy)pyridin-2-yl)methyl)-9-methyl-6,7,8,9-tetrahydro-5H-pyrimido[4,5-e][1,4]diazepin-5-one] yielded a Ki [1] of less than 100 nM and a Ki [2] of 100 to 500 nM.

For CNCC[C@H](Oc1cnc(CN2CCN(C)c3nc(N)ncc3C2=O)c(F)c1)c1cccc(F)c1 [Example 7, (S)-2-Amino-6-((3-fluoro-5-(1-(3-fluorophenyl)-3-(methylamino)propoxy)pyridin-2-yl)methyl)-9-methyl-6,7,8,9-tetrahydro-5H-pyrimido[4,5-e][1,4]diazepin-5-one], the Ki [1] was less than 100 nM and the Ki [2] was less than 100 nM.

CNCC[C@H](Oc1ccc(CN2CCN(C)c3ccncc3C2=O)c(F)c1)c1ccccc1 [Example 8, (S)-4-(2-Fluoro-4-(3-(methylamino)-1-phenylpropoxy)benzyI)-1-methyl-1,2,3,4-tetrahydro-5H-pyrido[4,3-e][1,4]diazepin-5-one] was tested, and the Ki [1] was less than 100 nM and the Ki [2] was 100 to 500 nM.

CNCC[C@H](Oc1ccc(CN2CCN(C)c3nc(OC)ncc3C2=O)c(F)c1)c1ccccc1 [Example 9, (S)-6-(2-Fluoro-4-(3-(methylamino)-1-phenylpropoxy)benzyl)-2-methoxy-9-methyl-6,7,8,9-tetrahydro-5H-pyrimido[4,5-e][1,4]diazepin-5-one] gave a Ki [1] of less than 100 nM and a Ki [2] of 100 to 500 nM.

With CNCC[C@H](Oc1ccc(CN2CCN(C)c3ncncc3C2=O)c(F)c1)c1ccccc1 [Example 10, (S)-6-(2-Fluoro-4-(3-(methylamino)-1-phenylpropoxy)benzyl)-9-methyl-6,7,8,9-tetrahydro-5H-pyrimido[4,5-e][1,4]diazepin-5-one] the Ki [1] was less than 100 nM and the Ki [2] was less than 100 nM.

Work on CNCC[C@H](Oc1ccc(CN2CCN(C)c3nc(N)ncc3C2=O)c(F)c1)c1ccccc1 [Example 11, (S)-2-Amino-6-(2-fluoro-4-(3-(methylamino)-1-phenylpropoxy)benzyl)-9-methyl-6,7,8,9-tetrahydro-5H-pyrimido[4,5-e][1,4]diazepin-5-one] yielded a Ki [1] of less than 100 nM and a Ki [2] of 100 to 500 nM.

CNCC[C@H](Oc1ccc(CN2CCN(C)c3cc(OC)ncc3C2=O)c(F)c1)c1ccccc1 [Example 12, (S)-4-(2-Fluoro-4-(3-(methylamino)-1-phenylpropoxy)benzyl)-8-methoxy-1-methyl-1,2,3,4-tetrahydro-5H-pyrido[4,3-e][1,4]diazepin-5-one] gave a Ki [1] of less than 100 nM and a Ki [2] of 100 to 500 nM.

CCNc1ncc2c(n1)N(C)CCN(Cc1ccc(O[C@H](CCNC)c3cccc(F)c3)cc1F)C2=O [Example 13, (R)-2-(Ethylamino)-6-(2-fluoro-4-(1-(3-fluorophenyl)-3-(methylamino)propoxy)benzyl)-9-methyl-6,7,8,9-tetrahydro-5H-pyrimido[4,5-e][1,4]diazepin-5-one] gave a Ki [1] of no less than 3000 nM and a Ki [2] of 500 to 1000 nM.

CCNc1ncc2c(n1)N(C)CCN(Cc1ccc(O[C@@H](CCNC)c3cccc(F)c3)cc1F)C2=O [Example 14, (S)-2-(Ethylamino)-6-(2-fluoro-4-(1-(3-fluorophenyl)-3-(methylamino)propoxy)benzyl)-9-methyl-6,7,8,9-tetrahydro-5H-pyrimido[4,5-e][1,4]diazepin-5-one] was tested, and the Ki [1] was less than 100 nM and the Ki [2] was 100 to 500 nM.

Compound CNCC[C@H](Oc1cnc(CN2CCN(C)c3cc(OC)ncc3C2=O)c(F)c1)c1cccs1 [Example 15, (S)-4-((3-Fluoro-5-(3-(methylamino)-1-(thiophen-2-yl)propoxy)pyridin-2-yl)methyl)-8-methoxy-1-methyl-1,2,3,4-tetrahydro-5H-pyrido[4,3-e][1,4]diazepi n-5-one.] has a Ki [1] of less than 100 nM and a Ki [2] of less than 100 nM.
